Reference: article PMC4222822, “Discovery and Characterization of a Potent and Selective Inhibitor of Aedes aegypti Inward Rectifier Potassium Channels” (PLoS ONE, 2014)

Biological target: T1, Kir3.1/3.2 (Homo sapiens, UniProt P48051+P48549)
T1 construct: expressed in transfected cells
T1 sequence (P48549 1-501): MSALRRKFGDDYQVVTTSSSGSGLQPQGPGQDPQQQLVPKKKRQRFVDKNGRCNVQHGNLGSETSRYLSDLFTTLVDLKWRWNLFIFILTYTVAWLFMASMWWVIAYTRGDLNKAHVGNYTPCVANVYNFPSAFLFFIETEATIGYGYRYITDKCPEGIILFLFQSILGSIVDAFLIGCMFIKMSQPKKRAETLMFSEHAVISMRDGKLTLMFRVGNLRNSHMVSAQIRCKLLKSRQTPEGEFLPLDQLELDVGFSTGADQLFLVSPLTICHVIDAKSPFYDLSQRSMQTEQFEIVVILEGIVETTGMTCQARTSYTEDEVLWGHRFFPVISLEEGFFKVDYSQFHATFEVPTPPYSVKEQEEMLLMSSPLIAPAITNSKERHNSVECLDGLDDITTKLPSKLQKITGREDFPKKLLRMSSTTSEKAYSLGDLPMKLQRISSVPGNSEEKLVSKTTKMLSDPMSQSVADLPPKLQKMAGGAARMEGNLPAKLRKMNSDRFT
T1 sequence (P48051 1-423): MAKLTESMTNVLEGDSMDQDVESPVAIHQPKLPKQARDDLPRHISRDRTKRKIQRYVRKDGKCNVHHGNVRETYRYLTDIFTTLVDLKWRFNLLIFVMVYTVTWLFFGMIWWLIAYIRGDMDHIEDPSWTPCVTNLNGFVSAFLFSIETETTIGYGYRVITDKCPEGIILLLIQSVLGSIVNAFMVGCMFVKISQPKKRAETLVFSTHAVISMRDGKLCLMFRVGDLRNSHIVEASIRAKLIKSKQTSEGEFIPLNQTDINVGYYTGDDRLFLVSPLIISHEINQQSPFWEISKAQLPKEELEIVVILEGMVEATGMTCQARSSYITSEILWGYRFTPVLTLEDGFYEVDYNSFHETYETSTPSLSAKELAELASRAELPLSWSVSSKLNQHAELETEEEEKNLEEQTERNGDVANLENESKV
Assay: Tl+ flux selectivity assay, Kir3.1/3.2
Format: cell-based
Conditions: Kir3.1/3.2 (with mGlu8, EC80 glutamate); n = 2 independent experiments in triplicate; read-out: Inhibition of Tl+ flux (IC50)
Procedure: [Worded in the source for another target; used here, by the source, with some conditions changed.] Tl^+ flux assays were performed essentially as described previously, [18], [19]. Briefly, stably transfected T-Rex-HEK-293 cells expressing AeKir1 channels were cultured overnight in 384-well plates (20,000 cells/20 µL/well black-walled, clear-bottomed BD PureCoat amine-coated plates (BD, Bedford, MA) with a plating media containing DMEM, 10% dialyzed FBS and 1 µg/mL tetracycline. The next day, the cell culture medium was replaced with a dye-loading solution containing assay buffer (Hanks Balanced Salt Solution with 20 mM HEPES, pH 7.3), 0.01% (w/v) Pluronic F-127 (Life Technologies, Carlsbad, CA), and 1.2 µM of the thallium-sensitive dye Thallos-AM (TEFlabs, Austin, TX). Following 1 hr incubation at room temperature, the dye-loading solution was washed from the plates and replaced with 20 µL/well of assay buffer. […] Tl^+ flux data were analyzed as previously described, [21], [22] using a combination of Excel (Microsoft Corp, Redmond, WA) with XLfit add-in (IDBS, Guildford, Surrey, UK) and OriginPro (OriginLab, Northampton, MA) software. […] The slope of the fluorescence increase beginning 5 s after Tl^+ addition and ending 15 s after Tl^+ addition was calculated.

Compound: CCC(=O)N1c2ccc(S(=O)(=O)Nc3cccc(OC)c3)cc2CC1C (stereo not shown) [VU625, N-(3-methoxyphenyl)-2-methyl-1-propionylindoline-5-sulfonamide]
- IC50: 8.6 µM
